Test results: US20220119354A1, “DIAMINO-SUBSTITUTED PYRIDINES AND PYRIMIDINES AS HERBICIDES” (FMC Corporation, priority 2019, published 2022)

How the values were obtained:
Assay type in all cases: in vivo
kochia (Kochia scoparia) [1] = assay: Test A preemergence, kochia; settings: 0 to 100 scale
From the text: (§1) Seeds of plant species selected from barnyardgrass (Echinochloa crus-galli), kochia (Kochia scoparia), ragweed (common ragweed, Ambrosia elatior), ryegrass, Italian (Lolium multiflorum), foxtail, giant (Setaria faberii), foxtail, green (Setaria viridis), and pigweed (Amaranthus retroflexus) were planted into a blend of loam soil and sand and treated preemergence with a directed soil spray using test chemicals formulated in a non-phytotoxic solvent mixture which included a surfactant.
(§2) At the same time, plants selected from these weed species and also wheat (Triticum aestivum), corn (Zea mays), blackgrass (Alopecurus myosuroides), and galium (catchweed bedstraw, Galium aparine) were planted in pots containing the same blend of loam soil and sand and treated with postemergence applications of test chemicals formulated in the same manner. Plants ranged in height from 2 to 10 cm and were in the one- to two-leaf stage for the postemergence treatment. Treated plants and untreated controls were maintained in a greenhouse for approximately 10 d, after which time all treated plants were compared to untreated controls and visually evaluated for injury. Plant response ratings, summarized in Table A, are based on a 0 to 100 scale where 0 is no effect and 100 is complete control. A dash (-) response means no test result.

[2] = system: ragweed (common ragweed, Ambrosia elatior); assay: Test A postemergence, ragweed; settings: 0 to 100 scale
From the text: as §1, §2

corn (Zea mays) = assay: Test A postemergence, corn; settings: 0 to 100 scale
From the text: as §1, §2

[3] = system: foxtail, giant (Setaria faberii); assay: Test A postemergence, giant foxtail; settings: 0 to 100 scale
From the text: as §1, §2

[4] = system: sedge, umbrella (small-flower umbrella sedge, Cyperus difformis); assay: Test B flooded paddy test, umbrella sedge; settings: Flood, 250 g ai/ha, applied to paddy water, 2-leaf stage, visual evaluation after 13 to 15 d
Experimental: (§3) Plant species in the flooded paddy test selected from rice (Oryza sativa), sedge, umbrella (small-flower umbrella sedge, Cyperus difformis), ducksalad (Heteranthera limosa), and barnyardgrass (Echinochloa crus-galli) were grown to the 2-leaf stage for testing. At the time of treatment, test pots were flooded to 3 cm above the soil surface, treated by application of test compounds directly to the paddy water, and then maintained at that water depth for the duration of the test. Treated plants and controls were maintained in a greenhouse for 13 to 15 d, after which time all species were compared to controls and visually evaluated. Plant response ratings, summarized in Table B, are based on a scale of 0 to 100 where 0 is no effect and 100 is complete control. A dash (-) response means no test result.

[5] = system: barnyardgrass (Echinochloa crus-galli); assay: Test B flooded paddy test, barnyardgrass; settings: Flood, 250 g ai/ha, applied to paddy water, 2-leaf stage, visual evaluation after 13 to 15 d
Experimental: as §3

[6] = system: ryegrass, Italian (Lolium multiflorum); assay: Test A postemergence, Italian ryegrass; settings: 0 to 100 scale
From the text: as §1, §2

[7] = system: blackgrass (Alopecurus myosuroides); assay: Test A postemergence, blackgrass; settings: 0 to 100 scale
From the text: as §1, §2

[8] = system: ducksalad (Heteranthera limosa); assay: Test B flooded paddy test, ducksalad; settings: Flood, 250 g ai/ha, applied to paddy water, 2-leaf stage, visual evaluation after 13 to 15 d
Experimental: as §3

[9] = system: ryegrass, Italian (Lolium multiflorum); assay: Test A preemergence, Italian ryegrass; settings: 0 to 100 scale
From the text: as §1, §2

rice (Oryza sativa) = assay: Test B flooded paddy test, rice; settings: Flood, 250 g ai/ha, applied to paddy water, 2-leaf stage, visual evaluation after 13 to 15 d
Experimental: as §3

[10] = system: foxtail, giant (Setaria faberii); assay: Test A preemergence, giant foxtail; settings: 0 to 100 scale
From the text: as §1, §2

[11] = system: wheat (Triticum aestivum); assay: Test A postemergence, wheat; settings: 0 to 100 scale
From the text: as §1, §2

[12] = system: galium (catchweed bedstraw, Galium aparine); assay: Test A postemergence, galium; settings: 0 to 100 scale
From the text: as §1, §2

[13] = system: barnyardgrass (Echinochloa crus-galli); assay: Test A preemergence, barnyardgrass; settings: 0 to 100 scale
From the text: as §1, §2

[14] = system: pigweed (Amaranthus retroflexus); assay: Test A preemergence, pigweed; settings: 0 to 100 scale
From the text: as §1, §2

[15] = system: pigweed (Amaranthus retroflexus); assay: Test A postemergence, pigweed; settings: 0 to 100 scale
From the text: as §1, §2

kochia (Kochia scoparia) [16] = assay: Test A postemergence, kochia; settings: 0 to 100 scale
From the text: as §1, §2

[17] = system: barnyardgrass (Echinochloa crus-galli); assay: Test A postemergence, barnyardgrass; settings: 0 to 100 scale
From the text: as §1, §2

C[C@@H](Nc1ncc(C(F)(F)F)c(N)n1)c1cc2cc(F)c(F)cc2o1 [Compounds 30]
Plant response rating, Kochia (kochia (Kochia scoparia) [1]; 125 g ai/ha): 0 | Plant response rating, Kochia (kochia (Kochia scoparia) [1]; 500 g ai/ha): 30 | Plant response rating, Ragweed ([2]; 125 g ai/ha): 20 | Plant response rating, Ragweed ([2]; 500 g ai/ha): 80 | Plant response rating, Corn (corn (Zea mays); 125 g ai/ha): 10 | Plant response rating, Corn (corn (Zea mays); 500 g ai/ha): 0 | Plant response rating, Foxtail, Giant ([3]; 125 g ai/ha): 0 | Plant response rating, Foxtail, Giant ([3]; 500 g ai/ha): 30 | Plant response rating, Sedge, Umbrella (0 to 100 scale, 0 is no effect, 100 is complete control) [4]: 80 | Plant response rating, Barnyardgrass (0 to 100 scale, 0 is no effect, 100 is complete control) [5]: 0 | Plant response rating, Ryegrass, Italian ([6]; 125 g ai/ha): 0 | Plant response rating, Ryegrass, Italian ([6]; 500 g ai/ha): 0 | Plant response rating, Blackgrass ([7]; 125 g ai/ha): 0 | Plant response rating, Blackgrass ([7]; 500 g ai/ha): 0 | Plant response rating, Ducksalad (0 to 100 scale, 0 is no effect, 100 is complete control) [8]: 0 | Plant response rating, Ryegrass, Italian ([9]; 125 g ai/ha): 0 | Plant response rating, Ryegrass, Italian ([9]; 500 g ai/ha): 0 | Plant response rating, Rice (0 to 100 scale, 0 is no effect, 100 is complete control) (rice (Oryza sativa)): 0 | Plant response rating, Foxtail, Giant ([10]; 125 g ai/ha): 0 | Plant response rating, Foxtail, Giant ([10]; 500 g ai/ha): 70 | Plant response rating, Wheat ([11]; 125 g ai/ha): 0 | Plant response rating, Wheat ([11]; 500 g ai/ha): 0 | Plant response rating, Galium ([12]; 125 g ai/ha): 50 | Plant response rating, Galium ([12]; 500 g ai/ha): 60 | Plant response rating, Barnyardgrass ([13]; 125 g ai/ha): 0 | Plant response rating, Barnyardgrass ([13]; 500 g ai/ha): 80 | Plant response rating, Pigweed ([14]; 125 g ai/ha): 40 | Plant response rating, Pigweed ([14]; 500 g ai/ha): 100 | Plant response rating, Pigweed ([15]; 125 g ai/ha): 100 | Plant response rating, Pigweed ([15]; 500 g ai/ha): 100 | Plant response rating, Kochia (kochia (Kochia scoparia) [16]; 125 g ai/ha): 20 | Plant response rating, Kochia (kochia (Kochia scoparia) [16]; 500 g ai/ha): 80 | Plant response rating, Barnyardgrass ([17]; 125 g ai/ha): 0 | Plant response rating, Barnyardgrass ([17]; 500 g ai/ha): 30

Cc1cc2oc([C@@H](C)Nc3ncc(C(F)(F)F)c(N)n3)cc2cc1F [Compound 31]
Plant response rating, Kochia (kochia (Kochia scoparia) [1]; 125 g ai/ha): 40 | Plant response rating, Kochia (kochia (Kochia scoparia) [1]; 500 g ai/ha): 90 | Plant response rating, Ragweed ([2]; 125 g ai/ha): 60 | Plant response rating, Ragweed ([2]; 500 g ai/ha): 90 | Plant response rating, Corn (corn (Zea mays); 125 g ai/ha): 0 | Plant response rating, Corn (corn (Zea mays); 500 g ai/ha): 30 | Plant response rating, Foxtail, Giant ([3]; 125 g ai/ha): 10 | Plant response rating, Foxtail, Giant ([3]; 500 g ai/ha): 70 | Plant response rating, Sedge, Umbrella (0 to 100 scale, 0 is no effect, 100 is complete control) [4]: 0 | Plant response rating, Barnyardgrass (0 to 100 scale, 0 is no effect, 100 is complete control) [5]: 0 | Plant response rating, Ryegrass, Italian ([6]; 125 g ai/ha): 30 | Plant response rating, Ryegrass, Italian ([6]; 500 g ai/ha): 10 | Plant response rating, Blackgrass ([7]; 125 g ai/ha): 20 | Plant response rating, Blackgrass ([7]; 500 g ai/ha): 10 | Plant response rating, Ducksalad (0 to 100 scale, 0 is no effect, 100 is complete control) [8]: 0 | Plant response rating, Ryegrass, Italian ([9]; 125 g ai/ha): 20 | Plant response rating, Ryegrass, Italian ([9]; 500 g ai/ha): 80 | Plant response rating, Rice (0 to 100 scale, 0 is no effect, 100 is complete control) (rice (Oryza sativa)): 0 | Plant response rating, Foxtail, Giant ([10]; 125 g ai/ha): 90 | Plant response rating, Foxtail, Giant ([10]; 500 g ai/ha): 100 | Plant response rating, Wheat ([11]; 125 g ai/ha): 0 | Plant response rating, Wheat ([11]; 500 g ai/ha): 0 | Plant response rating, Galium ([12]; 125 g ai/ha): 70 | Plant response rating, Galium ([12]; 500 g ai/ha): 100 | Plant response rating, Barnyardgrass ([13]; 125 g ai/ha): 70 | Plant response rating, Barnyardgrass ([13]; 500 g ai/ha): 100 | Plant response rating, Pigweed ([14]; 125 g ai/ha): 90 | Plant response rating, Pigweed ([14]; 500 g ai/ha): 100 | Plant response rating, Pigweed ([15]; 125 g ai/ha): 90 | Plant response rating, Pigweed ([15]; 500 g ai/ha): 100 | Plant response rating, Kochia (kochia (Kochia scoparia) [16]; 125 g ai/ha): 60 | Plant response rating, Kochia (kochia (Kochia scoparia) [16]; 500 g ai/ha): 90 | Plant response rating, Barnyardgrass ([17]; 125 g ai/ha): 20 | Plant response rating, Barnyardgrass ([17]; 500 g ai/ha): 80
